{"source": "paper PMC5730604", "key": {"3LL-R": {"system": "3LL-R", "conditions": "mouse, flow cytometry, 1 µM biotinylated peptide"}, "NIH-3T3": {"system": "NIH-3T3", "conditions": "mouse, flow cytometry, 1 µM biotinylated peptide", "method": "(§1) from DSMZ or LGC and cultured according to the distributors’ guidelines. Human, murine or\n(§2) guinea pig leukocytes or macrophages were isolated and cultured as described below. Cells\n(§3) growing in monolayers were detached using trypsin/EDTA and then re- suspended in complete\n(§4) culture medium. After washing with washing buffer (W B: 0.9% NaCl, 10 mM Hepes, pH 7.3) at\n(§5) 4°C, cells were re-suspended at 2x10^6 cells/ml in peptide blocking b uf f er ( PBB: 0.9% NaCl,\n(§6) 10 m M H epes, pH 7.3, 5 m M KCl , 3% BSA, 5% FCS) and incubated for 10 minutes on ice\n(§7) concentration in PBB were added to equal volumes of aliquots of 1x10^5 cells, and were\n(§8) incubated f or 30 min on ice with repeated shaking to keep the cells in suspension. Except\n(§9) three times wit h 1 ml W B, followed by incubation with streptavidin labeled wit h PerCP-Cy5.5\n(§10) (BD Biosciences, 200 µg/ml; diluted 1:400 in PBB) for 15 min on ice. After one additional\n(§11) wa s h ing step with phosphate- buffered saline (PBS) at 4°C, samples were re-suspended in\n(§12) PBS with Hoechst 33258 solution (0.5 µg/ml) and analyzed using a F ACS Canto system ( at\nleast 1x10^4 cells per sample were counted). Evaluations were performed using FloJo software.\nW hole cells were gated i n a FSC/SSC plot and live gating was based on Hoechst exclusion.\nAfter gating out debris, aggregates and dead cells, overlay histograms in the PerCP-Cy5.5\nindicated cases the geometrical mean f luorescence was recorded.\nFor determining binding affinity, a rang e of concentrations of the biotinylated compound was\ntested and the f luorescent signals were plotted against concentration. The concentration at\nwhich half-maximum binding intensity was reached (KD) was calculated using Origin 9.0\nsof tware and a “one site specif ic binding” fit (y =(Bmax* x) /(KD+x) ).\nf luorescent signals were plotted against competitor concentration. The concentration at which"}, "A431": {"system": "A431", "assay": "Flow cytometry binding to cells; for binding to MCF-7: key: ++: strong binding; +: m edium binding; +/-: weak or heterogeneous binding; -: no binding; for binding to MDA-MB-231: key: ++: strong binding; +: m edium binding; +/-: weak or heterogeneous binding; -: no binding; for binding to U-138MG: key: ++: strong binding; +: m edium binding; +/-: weak or heterogeneous binding; -: no binding; for binding to VX2 / J S-2-2r: key: ++: strong binding; +: m edium binding; +/-: weak or heterogeneous binding; -: no binding; for binding to fresh monocytes: key: ++: Strong binding; +: medium binding; +/−: weak binding; −: no binding; for binding to monocytes 2 days: key: ++: Strong binding; +: medium binding; +/−: weak binding; −: no binding; for binding to primary monocytes 2 days: key: ++: Strong binding; +: medium binding; +/−: weak binding; −: no binding; for binding to primary monocytes: key: ++: Strong binding; +: medium binding; +/−: weak binding; −: no binding", "parameters": "species or system Human; key to the marks not given beside the values", "conditions": "1 µM biotinylated peptide"}, "foreskin fibroblasts": {"system": "foreskin fibroblasts", "conditions": "flow cytometry, 1 µM biotinylated peptide"}, "MCF-7": {"system": "MCF-7", "assay": "Flow cytometry binding to cells", "conditions": "Table S1, human, 1 µM biotinylated peptide, 2 mM MnCl2, on ice"}, "VX2 / J S-2-2r": {"system": "VX2 / J S-2-2r", "assay": "Flow cytometry binding to cells", "parameters": "key to the marks not given beside the values", "conditions": "Table S1, rabbit, 1 µM biotinylated peptide, 2 mM MnCl2, on ice"}, "A549": {"system": "A549", "parameters": "key to the marks not given beside the values", "conditions": "Table S1; human; flow cytometry, 1 µM biotinylated peptide, 2 mM MnCl2, on ice"}, "L-929": {"system": "L-929", "conditions": "Table S1; mouse; flow cytometry, 1 µM biotinylated peptide, 2 mM MnCl2, on ice", "method": "as §1, §2, §3, §4, §5, §6, §7, §8, §9, §10, §11, §12\n(§13) least 1x10^4 cells per sample were counted). Evaluations were performed using FloJo software. […]\n(§14) indicated cases the geometrical mean f luorescence was recorded. […]\n(§15) which half-maximum binding intensity was reached (KD) was calculated using Origin 9.0 […]"}, "PC-3 or A431 cells": {"system": "PC-3 or A431 cells", "conditions": "PC-3 or A431 cells, incubated at 37 °C, streptavidin staining", "method": "washed as described above and then re-suspended in Eagle’s minimum essential medium\nincubated on ice or at 37°C. At different time points after washing 50 µl samples were taken\nand added to 50 µl of Streptavidin- PerCP-Cy5.5 (diluted 1:200), incubated on ice f or 15 min,\nwashed with PBS, and analyzed in PBS with Hoechst solution. Fluorescent signals were\nplotted against time between washing and streptavidin addition.\nover time after incubation on ice and at 37°C.\nlabeled streptavidin as described previously f or flow cytometry assays."}, "J774A.1": {"system": "J774A.1", "conditions": "mouse, flow cytometry, 1 µM biotinylated peptide"}, "U-138MG": {"system": "U-138MG", "assay": "Flow cytometry binding to cells", "parameters": "key to the marks not given beside the values", "conditions": "Table S1, human, 1 µM biotinylated peptide, 2 mM MnCl2, on ice"}, "MHEC5-T": {"system": "MHEC5-T", "conditions": "Table S1; mouse; flow cytometry, 1 µM biotinylated peptide, 2 mM MnCl2, on ice"}, "EG7": {"system": "EG7", "conditions": "Table S1; mouse; flow cytometry, 1 µM biotinylated peptide, 2 mM MnCl2, on ice"}, "[1]": {"system": "primary macrophages 7 days", "assay": "Flow cytometry binding to cells", "conditions": "1 µM biotinylated peptide"}, "primary monocytes": {"system": "primary monocytes", "assay": "Flow cytometry binding to cells", "conditions": "1 µM biotinylated peptide"}, "TSA": {"system": "TSA", "conditions": "Table S1; mouse; flow cytometry, 1 µM biotinylated peptide, 2 mM MnCl2, on ice"}, "primary monocytes 2 days": {"system": "primary monocytes 2 days", "assay": "Flow cytometry binding to cells", "conditions": "1 µM biotinylated peptide"}, "primary macrophages 7d": {"system": "primary macrophages 7d", "assay": "Flow cytometry binding to cells", "conditions": "1 µM biotinylated peptide"}, "JH4 clone 1": {"system": "JH4 clone 1", "assay": "Flow cytometry binding to cells", "parameters": "key to the marks not given beside the values", "conditions": "1 µM biotinylated peptide"}, "HeLa": {"system": "HeLa", "parameters": "key to the marks not given beside the values", "conditions": "Table S1; human; flow cytometry, 1 µM biotinylated peptide, 2 mM MnCl2, on ice"}, "PC-3": {"system": "PC-3", "assay": "Flow cytometry binding to cells", "parameters": "species or system Human; key to the marks not given beside the values", "conditions": "1 µM biotinylated peptide"}, "MDA-MB-231": {"system": "MDA-MB-231", "assay": "Flow cytometry binding to cells", "parameters": "key to the marks not given beside the values", "conditions": "Table S1, human, 1 µM biotinylated peptide, 2 mM MnCl2, on ice"}, "primary granulocytes": {"system": "primary granulocytes", "assay": "Flow cytometry binding to cells", "conditions": "1 µM biotinylated peptide"}, "GPC-16": {"system": "GPC-16", "assay": "Flow cytometry binding to cells", "parameters": "key to the marks not given beside the values", "conditions": "1 µM biotinylated peptide"}, "MC38": {"system": "MC38", "conditions": "Table S1; mouse; flow cytometry, 1 µM biotinylated peptide, 2 mM MnCl2, on ice"}, "C26": {"system": "C26", "conditions": "Table S1; mouse; flow cytometry, 1 µM biotinylated peptide, 2 mM MnCl2, on ice"}, "HT-29": {"system": "HT-29", "assay": "Flow cytometry binding to cells", "parameters": "key to the marks not given beside the values", "conditions": "Table S1, human, 1 µM biotinylated peptide, 2 mM MnCl2, on ice"}, "4T1": {"system": "4T1", "conditions": "Table S1; mouse; flow cytometry, 1 µM biotinylated peptide, 2 mM MnCl2, on ice", "method": "as §1, §2, §3, §4, §5, §6, §7, §8, §9, §10, §11, §12, §13, §14, §15"}, "104C1": {"system": "104C1", "assay": "Flow cytometry binding to cells", "parameters": "key to the marks not given beside the values", "conditions": "1 µM biotinylated peptide"}, "3LL-S": {"system": "3LL-S", "conditions": "Table S1; mouse; flow cytometry, 1 µM biotinylated peptide, 2 mM MnCl2, on ice"}, "HUVEC": {"system": "HUVEC", "assay": "Flow cytometry binding to cells", "parameters": "species or system Human", "conditions": "1 µM biotinylated peptide"}, "leukocytes": {"system": "leukocytes", "conditions": "Table S1; rabbit; flow cytometry, 1 µM biotinylated peptide, 2 mM MnCl2, on ice"}, "K562": {"system": "K562", "assay": "Flow cytometry binding to cells", "parameters": "species or system Human", "conditions": "1 µM biotinylated peptide"}, "U-87MG": {"system": "U-87MG", "assay": "Flow cytometry binding to cells", "parameters": "key to the marks not given beside the values", "conditions": "Table S1, human, 1 µM biotinylated peptide, 2 mM MnCl2, on ice"}, "E0771": {"system": "E0771", "conditions": "Table S1; mouse; flow cytometry, 1 µM biotinylated peptide, 2 mM MnCl2, on ice", "method": "as §1, §2, §3, §4, §5, §6, §7, §8, §9, §10, §11, §12, §13, §14, §15"}, "primary lymphocytes": {"system": "primary lymphocytes", "assay": "Flow cytometry binding to cells", "conditions": "1 µM biotinylated peptide"}, "Hepa1–6": {"system": "Hepa1–6", "conditions": "mouse, flow cytometry, 1 µM biotinylated peptide"}, "PBEC": {"system": "PBEC", "conditions": "Table S1; pig; flow cytometry, 1 µM biotinylated peptide, 2 mM MnCl2, on ice"}, "[2]": {"conditions": "2 mM MnCl2, 30 min on ice, streptavidin-PerCP-Cy5.5"}, "[3]": {"conditions": "Table S1, human, 2 mM MnCl2, on ice"}, "[4]": {"conditions": "human, 2 mM MnCl2, 30 min on ice, streptavidin-PerCP-Cy5.5"}, "[5]": {"conditions": "Table S1, guinea pig, 2 mM MnCl2, on ice"}, "[6]": {"conditions": "guinea pig, 2 mM MnCl2, 30 min on ice, streptavidin-PerCP-Cy5.5"}}, "note": "Where two headings read alike, the source gives them in different places. Starred links: 1 amine or outer side, 2 acyl side, 3 side chain; linkers in the order of their positions; H or OH if unused. Positions of bridges follow the written chain, without caps; N, C: chain ends. Non-standard residues stand in square brackets, D forms with d. Residues, ends and D or L forms follow the SMILES beside them. Groups on a side chain read outwards from the residue. *: point of attachment. X1 = O=C(CCCC[C@@H]1SC[C@@H]2NC(=O)N[C@@H]21)NCCCOCCOCCOCCCN*; Tyr(3-NO2) = N[C@@H](Cc1ccc(O)c([N+](=O)[O-])c1)C(=O)O; Glutaryl = O=C(CCCC(=O)[*:2])[*:1]; Hyp = O=C(O)[C@@H]1C[C@@H](O)CN1; PEG4 = NCCOCCOCCOCCOCCC(=O)O"}
{"smiles": "NC(=O)C[C@@H]1NC(=O)[C@@H]2C[C@@H](O)CN2C(=O)CNC(=O)[C@H](Cc2ccc(O)c([N+](=O)[O-])c2)NC(=O)CNC(=O)[C@@H](CC(=O)O)NC(=O)[C@H](N)CSSC[C@H](C(=O)NCCOCCOCCOCCOCCC(=O)N[C@@H](CCCCNC(=O)CCCC(=O)NCCCOCCOCCOCCCNC(=O)CCCC[C@@H]2SC[C@@H]3NC(=O)N[C@@H]32)C(N)=O)NC1=O", "note": "[B9-Biotin] (H-[dC][dD]G[Tyr(3-NO2)]G[Hyp]N[dC][PEG4]K([Glutaryl-X1])-NH2; disulfide 1-8)", "values": [{"measurement": "binding to 3LL-R", "setting": "3LL-R; Table S1, 2 mM MnCl2, on ice", "result": "+"}, {"measurement": "binding to 3LL-R", "setting": "3LL-R; [2]", "result": "+"}, {"measurement": "binding to NIH-3T3", "setting": "NIH-3T3; Table S1, 2 mM MnCl2, on ice", "result": "+"}, {"measurement": "binding to NIH-3T3", "setting": "NIH-3T3; [2]", "result": "+"}, {"measurement": "binding to A431", "setting": "A431; [2]", "result": "++"}, {"measurement": "binding to A431", "setting": "A431; [3]", "result": "++"}, {"measurement": "binding to foreskin fibroblasts", "setting": "foreskin fibroblasts; [3]", "result": "-"}, {"measurement": "binding to foreskin fibroblasts", "setting": "foreskin fibroblasts; [2]", "result": "−"}, {"measurement": "binding to MCF-7", "setting": "MCF-7", "result": "+"}, {"measurement": "binding to VX2 / J S-2-2r", "setting": "VX2 / J S-2-2r", "result": "++"}, {"measurement": "binding to A549", "setting": "A549", "result": "++"}, {"measurement": "binding to L-929", "setting": "L-929", "result": "-"}, {"measurement": "streptavidin signal on cells after 5 min", "setting": "PC-3 or A431 cells", "result": "no signal above background"}, {"measurement": "binding to J774A.1", "setting": "J774A.1; Table S1, 2 mM MnCl2, on ice", "result": "-"}, {"measurement": "binding to J774A.1", "setting": "J774A.1; [2]", "result": "−"}, {"measurement": "binding to U-138MG", "setting": "U-138MG", "result": "++"}, {"measurement": "binding to MHEC5-T", "setting": "MHEC5-T", "result": "+"}, {"measurement": "binding to EG7", "setting": "EG7", "result": "-"}, {"measurement": "binding to macrophages 7 days", "setting": "[1]; [3]", "result": "+/-"}, {"measurement": "binding to primary macrophages 7 days", "setting": "[1]; [4]", "result": "+/−"}, {"measurement": "binding to fresh monocytes", "setting": "primary monocytes; [3]", "result": "-"}, {"measurement": "binding to primary monocytes", "setting": "primary monocytes; [4]", "result": "−"}, {"measurement": "binding to TSA", "setting": "TSA", "result": "+"}, {"measurement": "binding to monocytes 2 days", "setting": "primary monocytes 2 days; [3]", "result": "-"}, {"measurement": "binding to primary monocytes 2 days", "setting": "primary monocytes 2 days; [4]", "result": "−"}, {"measurement": "binding to macrophages 7d", "setting": "primary macrophages 7d; Table S1, mouse, 2 mM MnCl2, on ice", "result": "-"}, {"measurement": "binding to primary macrophages 7d", "setting": "primary macrophages 7d; mouse, 2 mM MnCl2, 30 min on ice, streptavidin-PerCP-Cy5.5", "result": "−"}, {"measurement": "binding to JH4 clone 1", "setting": "JH4 clone 1; [5]", "result": "++"}, {"measurement": "binding to JH4 clone 1", "setting": "JH4 clone 1; [6]", "result": "++"}, {"measurement": "binding to HeLa", "setting": "HeLa", "result": "++"}, {"measurement": "binding to PC-3", "setting": "PC-3; [2]", "result": "++"}, {"measurement": "binding to PC-3", "setting": "PC-3; [3]", "result": "++"}, {"measurement": "binding to MDA-MB-231", "setting": "MDA-MB-231", "result": "++"}, {"measurement": "binding to fresh granulocytes", "setting": "primary granulocytes; [3]", "result": "-"}, {"measurement": "binding to primary granulocytes", "setting": "primary granulocytes; [4]", "result": "−"}, {"measurement": "binding to GPC-16", "setting": "GPC-16; [5]", "result": "++"}, {"measurement": "binding to GPC-16", "setting": "GPC-16; [6]", "result": "++"}, {"measurement": "binding to MC38", "setting": "MC38", "result": "-"}, {"measurement": "binding to C26", "setting": "C26", "result": "+"}, {"measurement": "binding to HT-29", "setting": "HT-29", "result": "++"}, {"measurement": "binding to 4T1", "setting": "4T1", "result": "+"}, {"measurement": "binding to 104C1", "setting": "104C1; [5]", "result": "++"}, {"measurement": "binding to 104C1", "setting": "104C1; [6]", "result": "++"}, {"measurement": "binding to 3LL-S", "setting": "3LL-S", "result": "+"}, {"measurement": "binding to HUVEC", "setting": "HUVEC; [2]", "result": "+"}, {"measurement": "binding to HUVEC", "setting": "HUVEC; [3]", "result": "+"}, {"measurement": "binding to leukocytes", "setting": "leukocytes", "result": "-"}, {"measurement": "binding to K562", "setting": "K562; [2]", "result": "−"}, {"measurement": "binding to K562", "setting": "K562; [3]", "result": "-"}, {"measurement": "binding to U-87MG", "setting": "U-87MG", "result": "++"}, {"measurement": "binding to E0771", "setting": "E0771", "result": "-"}, {"measurement": "binding to fresh lymphocytes", "setting": "primary lymphocytes; [3]", "result": "-"}, {"measurement": "binding to primary lymphocytes", "setting": "primary lymphocytes; [4]", "result": "−"}, {"measurement": "binding to Hepa1-6", "setting": "Hepa1–6; Table S1, 2 mM MnCl2, on ice", "result": "+"}, {"measurement": "binding to Hepa1–6", "setting": "Hepa1–6; [2]", "result": "+"}, {"measurement": "binding to PBEC", "setting": "PBEC", "result": "+"}]}
